Test results: patent US20260137697A1, “THIAZOLO[5,4-D]PYRIMIDINE COMPOUNDS, COMPOSITIONS COMPRISING THEM AND USES THEREOF” (University de Montreal, priority 2022, published 2026)
pIC50: −log10 of the molar value.

How the values were obtained:
BRAF = molecular target: T1, BRAF (Homo sapiens, UniProt P15056); test: BRAF kinase activity assay (ADP-Glo); assay type: biochemical; conditions: Table 3; 10 μM ATP, kinase-dead MEK1 substrate
T1 construct: GST; purchased Millipore Sigma B4062-10UG
Outline: (§1)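 GST-tagged kinase (0.375 nM) with 75 nM kinase-dead MEK1 and 10 μM ATP in HEPES pH 7.5 buffer, 2 h at 30° C, nine concentrations 100–0.01 nM, 0.05% DMSO. ADP-Glo luminescence; % inhibition vs DMSO and substrate-only blanks, IC50 by four-parameter fit.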

pERK, HCT116 cells = test: Phospho-ERK inhibition, AlphaLISA p-ERK 1/2, HCT-116; assay type: cell-based, human; conditions: Table 3; for pIC50: HCT116 cells (KRAS G13D), 1 h treatment; for HCT116 pERK (Ymin %): lowest % inhibition value of the pERK IC50 curve, above −20% = no paradoxical induction
Outline: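 Cells in RPMI-1640 with 5% FBS plated overnight, then treated 1 h with ten-point dilutions (10 μM to 0.33 nM, 0.5% DMSO). Lysate p-ERK1/2 (Thr202/Tyr204) read by AlphaLISA SureFire Ultra; % inhibition normalised to DMSO and 1 μM trametinib background, IC50 by four-parameter fit.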

CRAF = molecular target: T2, CRAF (Homo sapiens, UniProt P04049); test: CRAF kinase activity assay (ADP-Glo); assay type: biochemical; conditions: Table 3; 10 μM ATP, kinase-dead MEK1 substrate
T2 construct: fused on or other part: GST tag (N-terminal according to the vendor's product)
T2 sequence (P04049 whole entry Y340E/Y341E, form open, the tested form may be a part): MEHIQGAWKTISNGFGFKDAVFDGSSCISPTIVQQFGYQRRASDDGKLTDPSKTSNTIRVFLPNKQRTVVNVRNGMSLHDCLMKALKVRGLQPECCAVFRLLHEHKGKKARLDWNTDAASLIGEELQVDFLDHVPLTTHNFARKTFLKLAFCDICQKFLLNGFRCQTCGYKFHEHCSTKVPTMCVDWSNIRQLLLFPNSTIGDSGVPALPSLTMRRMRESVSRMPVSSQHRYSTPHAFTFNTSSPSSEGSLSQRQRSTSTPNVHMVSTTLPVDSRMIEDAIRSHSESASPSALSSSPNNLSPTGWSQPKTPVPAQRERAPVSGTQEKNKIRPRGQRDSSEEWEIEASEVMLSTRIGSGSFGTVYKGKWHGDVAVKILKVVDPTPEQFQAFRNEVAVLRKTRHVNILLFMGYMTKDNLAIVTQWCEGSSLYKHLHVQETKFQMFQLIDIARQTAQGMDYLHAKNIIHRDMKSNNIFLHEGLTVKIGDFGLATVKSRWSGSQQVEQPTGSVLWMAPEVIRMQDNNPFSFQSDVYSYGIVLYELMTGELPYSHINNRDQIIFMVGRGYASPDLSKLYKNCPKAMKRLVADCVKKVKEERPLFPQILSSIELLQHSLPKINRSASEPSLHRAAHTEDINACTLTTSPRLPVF
Outline: as §1

T1 sequence (P15056 whole entry): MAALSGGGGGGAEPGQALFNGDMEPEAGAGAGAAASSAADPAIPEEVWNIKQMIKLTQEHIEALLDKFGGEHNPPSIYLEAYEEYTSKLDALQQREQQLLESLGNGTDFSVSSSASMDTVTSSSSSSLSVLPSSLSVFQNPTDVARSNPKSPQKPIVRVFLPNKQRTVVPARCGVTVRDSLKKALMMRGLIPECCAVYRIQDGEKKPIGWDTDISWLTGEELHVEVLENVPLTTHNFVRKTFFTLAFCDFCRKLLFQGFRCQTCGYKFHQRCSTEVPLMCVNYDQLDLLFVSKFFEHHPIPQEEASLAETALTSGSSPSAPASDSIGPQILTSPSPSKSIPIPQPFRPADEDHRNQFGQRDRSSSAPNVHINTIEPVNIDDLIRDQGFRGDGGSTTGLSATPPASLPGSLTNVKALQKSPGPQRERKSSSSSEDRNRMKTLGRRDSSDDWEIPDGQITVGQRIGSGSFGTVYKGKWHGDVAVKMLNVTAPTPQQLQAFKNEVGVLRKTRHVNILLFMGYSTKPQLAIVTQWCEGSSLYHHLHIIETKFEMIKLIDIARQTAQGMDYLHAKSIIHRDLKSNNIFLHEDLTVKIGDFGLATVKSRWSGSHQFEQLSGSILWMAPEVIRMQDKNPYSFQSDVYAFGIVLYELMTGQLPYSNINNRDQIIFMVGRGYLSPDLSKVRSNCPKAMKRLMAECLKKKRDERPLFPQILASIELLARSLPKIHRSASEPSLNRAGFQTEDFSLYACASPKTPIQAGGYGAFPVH

Row | SMILES | pIC50 (BRAF) | pIC50 (pERK, HCT116 cells) | HCT116 pERK (Ymin %) (pERK, HCT116 cells) [%] | pIC50 (CRAF) | pIC50 (pERK, HCT116 cells; Homo sapiens, HCT-116)
1 | O=C(c1cn(-c2nc3c(Nc4c(F)ccc(NS(=O)(=O)c5cccc(Cl)c5Cl)c4F)ncnc3s2)c2ccc(F)cc12)N1C2CCC1COC2 [Example 102] | 8.00 to 9.00 | > 6.30 | 0 | > 8.00 | 
2 | Cc1ncn(-c2nc3c(Nc4c(F)ccc(NS(=O)(=O)c5cccc(Cl)c5Cl)c4F)ncnc3s2)c1C [Example 103] | 8.00 to 9.00 | 6.00 to 6.30 | −7 | > 8.00 | 
3 | CC(C)(C#N)c1cccc2c1ncn2-c1nc2c(Nc3c(F)ccc(NS(=O)(=O)c4cccc(Cl)c4Cl)c3F)ncnc2s1 [Example 104] | 8.00 to 9.00 | > 6.30 | −10 | 7.30 to 8.00 | 
4 | COc1nccc2c1ncn2-c1nc2c(Nc3c(F)ccc(NS(=O)(=O)c4cccc(Cl)c4Cl)c3F)ncnc2s1 [Example 105] | 8.00 to 9.00 | > 6.30 | 4 | > 8.00 | 
5 | COCCC(=O)c1cn(-c2nc3c(Nc4c(F)ccc(NS(=O)(=O)c5cccc(Cl)c5Cl)c4F)ncnc3s2)c2ccccc12 [Example 106] | < 8.00 |  |  | 7.30 to 8.00 | 6.00 to 6.30
6 | O=C(c1cccs1)c1cn(-c2nc3c(Nc4c(F)ccc(NS(=O)(=O)c5cccc(Cl)c5Cl)c4F)ncnc3s2)c2ccccc12 [Example 107] | < 8.00 |  |  | < 7.30 | 5.00 to 6.00
7 | CCOc1cccc2c1ccn2-c1nc2c(Nc3c(F)ccc(NS(=O)(=O)c4cccc(Cl)c4Cl)c3F)ncnc2s1 [Example 108] | 8.00 to 9.00 | > 6.30 | −10 | 7.30 to 8.00 | 
8 | O=S(=O)(Nc1ccc(F)c(Nc2ncnc3sc(-n4cnc(-c5ccccc5)c4)nc23)c1F)c1cccc(Cl)c1Cl [Example 109] | < 8.00 | 6.00 to 6.30 | −13 | < 7.30 | 
9 | O=C1CCCN1c1cn(-c2nc3c(Nc4c(F)ccc(NS(=O)(=O)c5cccc(Cl)c5Cl)c4F)ncnc3s2)c2ccccc12 [Example 110, 2,3-dichloro-N-[2,4-difluoro-3-[[2-[3-(2-oxopyrrolidin-1-yl)indol-1-yl]thiazolo[5,4-d]pyrimidin-7-yl]amino]phenyl]benzenesulfonamide] | 8.00 to 9.00 |  |  | 7.30 to 8.00 | > 6.30
10 | O=S(=O)(Nc1ccc(F)c(Nc2ncnc3sc(-n4cnc5c(OCCO)cccc54)nc23)c1F)c1cccc(Cl)c1Cl [Example 111] | > 9.00 | > 6.30 | −10 | > 8.00 | 
11 | Cc1c(F)cccc1S(=O)(=O)Nc1ccc(F)c(Nc2ncnc3sc(-n4cnc5c(C(C)(C)C#N)cccc54)nc23)c1F [Example 112] | 8.00 to 9.00 | > 6.30 | 7 | > 8.00 | 
12 | CC1(O)CCN(c2cccc3c2ncn3-c2nc3c(Nc4c(F)ccc(NS(=O)(=O)c5cccc(Cl)c5Cl)c4F)ncnc3s2)CC1 [Example 113] | 8.00 to 9.00 |  |  | 7.30 to 8.00 | > 6.30
13 | O=S(=O)(Nc1ccc(F)c(Nc2ncnc3sc(-n4ccc5ccccc54)nc23)c1F)c1cccc(Cl)c1Cl [Example 114] | < 8.00 | 5.00 to 6.00 | −14 | < 7.30 | 
14 | O=S(=O)(Nc1ccc(F)c(Nc2ncnc3sc(-n4ccc5ncccc54)nc23)c1F)c1cccc(Cl)c1Cl [Example 115] | 8.00 to 9.00 | > 6.30 | −11 | > 8.00 | 
15 | Cc1c(Cl)cccc1S(=O)(=O)Nc1ccc(F)c(Nc2ncnc3sc(-n4cnc5c(C(C)(C)C#N)cccc54)nc23)c1F [Example 116] | 8.00 to 9.00 | > 6.30 | −3 | 7.30 to 8.00 | 
16 | COc1ccc(S(=O)(=O)Nc2ccc(F)c(Nc3ncnc4sc(-n5cnc6c(C(C)(C)C#N)cccc65)nc34)c2F)c(C)c1Cl [Example 117] | < 8.00 | 6.00 to 6.30 | −15 | 7.30 to 8.00 | 
17 | COc1ccc(S(=O)(=O)Nc2ccc(F)c(Nc3ncnc4sc(-n5cnc6c(C(C)(C)C#N)cccc65)nc34)c2F)c(C)c1F [Example 118] | < 8.00 | > 6.30 | −14 | < 7.30 | 
18 | COCCOc1cccc2c1ncn2-c1nc2c(Nc3c(F)ccc(NS(=O)(=O)c4cccc(Cl)c4Cl)c3F)ncnc2s1 [Example 119] | > 9.00 | > 6.30 | −1 | > 8.00 | 
19 | N#Cc1cccc2c1ncn2-c1nc2c(Nc3c(F)ccc(NS(=O)(=O)c4cccc(Cl)c4Cl)c3F)ncnc2s1 [Example 120] | 8.00 to 9.00 |  |  | > 8.00 | > 6.30

Row | SMILES | pIC50 (BRAF) | pIC50 (pERK, HCT116 cells) | HCT116 pERK (Ymin %) (pERK, HCT116 cells) [%] | pIC50 (CRAF) | pIC50 (pERK, HCT116 cells; Homo sapiens, HCT-116)
20 | O=S(=O)(Nc1ccc(F)c(Nc2ncnc3sc(-n4cnc(CCO)c4)nc23)c1F)c1cccc(Cl)c1Cl [Example 121] | 8.00 to 9.00 | 6.00 to 6.30 | −11 | 7.30 to 8.00 | 
21 | NC(=O)c1cccc2c1ncn2-c1nc2c(Nc3c(F)ccc(NS(=O)(=O)c4cccc(Cl)c4Cl)c3F)ncnc2s1 [Example 123] | 8.00 to 9.00 | > 6.30 | −11 | > 8.00 | 
22 | N#CCc1cn(-c2nc3c(Nc4c(F)ccc(NS(=O)(=O)c5cccc(Cl)c5Cl)c4F)ncnc3s2)cn1 [Example 124] | 8.00 to 9.00 | > 6.30 | 12 | > 8.00 | 
23 | Cc1cn(-c2nc3c(Nc4c(F)ccc(NS(=O)(=O)c5cccc(Cl)c5Cl)c4F)ncnc3s2)cn1 [Example 125] | 8.00 to 9.00 | 6.00 to 6.30 | 2 | > 8.00 | 
24 | O=S(=O)(Nc1ccc(F)c(Nc2ncnc3sc(-n4cnc5c(CCO)cccc54)nc23)c1F)c1cccc(Cl)c1Cl [Example 126] | > 9.00 | > 6.30 | −9 | > 8.00 | 
25 | O=S(=O)(Nc1ccc(F)c(Nc2ncnc3sc(-n4cnc5c(N6CC7CC6CO7)cccc54)nc23)c1F)c1cccc(Cl)c1Cl (centres unmarked) [Example 127] | 8.00 to 9.00 | > 6.30 | 1 | 7.30 to 8.00 | 
26 | COCCCN(C)c1cccc2c1ncn2-c1nc2c(Nc3c(F)ccc(NS(=O)(=O)c4cccc(Cl)c4Cl)c3F)ncnc2s1 [Example 128] | 8.00 to 9.00 | > 6.30 | 1 | 7.30 to 8.00 | 
27 | O=S(=O)(Nc1ccc(F)c(Nc2ncnc3sc(-n4cnc5c(N6C7CCC6CC(O)C7)cccc54)nc23)c1F)c1cccc(Cl)c1Cl (centres unmarked) [Example 129] | 8.00 to 9.00 | > 6.30 | 0 | < 7.30 | 
28 | CC(=O)N1CCN(c2cccc3c2ncn3-c2nc3c(Nc4c(F)ccc(NS(=O)(=O)c5cccc(Cl)c5Cl)c4F)ncnc3s2)CC1 [Example 130] | > 9.00 | > 6.30 | −2 | > 8.00 | 
29 | COCCOCCOc1cccc2c1ncn2-c1nc2c(Nc3c(F)ccc(NS(=O)(=O)c4cccc(Cl)c4Cl)c3F)ncnc2s1 [Example 131] | 8.00 to 9.00 | > 6.30 | 0 | > 8.00 | 
30 | COC[C@@H]1CCCN1c1cccc2c1ncn2-c1nc2c(Nc3c(F)ccc(NS(=O)(=O)c4cccc(Cl)c4Cl)c3F)ncnc2s1 [Example 132] | < 8.00 | 5.00 to 6.00 | −11 | < 7.30 | 
31 | Nc1ccncc1-c1cccc2c1ncn2-c1nc2c(Nc3c(F)ccc(NS(=O)(=O)c4cccc(Cl)c4Cl)c3F)ncnc2s1 [Example 133] | 8.00 to 9.00 | 5.00 to 6.00 | −12 | 7.30 to 8.00 | 
32 | Nc1ncccc1-c1cccc2c1ncn2-c1nc2c(Nc3c(F)ccc(NS(=O)(=O)c4cccc(Cl)c4Cl)c3F)ncnc2s1 [Example 134] | 8.00 to 9.00 | > 6.30 | −5 | 7.30 to 8.00 | 
33 | COC1(C)CCN(c2cccc3c2ncn3-c2nc3c(Nc4c(F)ccc(NS(=O)(=O)c5cccc(Cl)c5Cl)c4F)ncnc3s2)CC1 [Example 135] | 8.00 to 9.00 | > 6.30 | −5 | < 7.30 | 
34 | O=S(=O)(Nc1ccc(F)c(Nc2ncnc3sc(-n4cnc5c(N6CCC7(CCCO7)CC6)cccc54)nc23)c1F)c1cccc(Cl)c1Cl [Example 136] | < 8.00 | > 6.30 | −17 | 7.30 to 8.00 | 
35 | O=S(=O)(Nc1ccc(F)c(Nc2ncnc3sc(-n4cnc5c(N6CCC(O)(C(F)(F)F)CC6)cccc54)nc23)c1F)c1cccc(Cl)c1Cl [Example 137] | < 8.00 | > 6.30 | −14 | < 7.30 | 
36 | CC1(CO)CCN(c2cccc3c2ncn3-c2nc3c(Nc4c(F)ccc(NS(=O)(=O)c5cccc(Cl)c5Cl)c4F)ncnc3s2)CC1 [Example 138] | < 8.00 | > 6.30 | −14 | < 7.30 | 
37 | COC1CCN(c2cccc3c2ncn3-c2nc3c(Nc4c(F)ccc(NS(=O)(=O)c5cccc(Cl)c5Cl)c4F)ncnc3s2)CC1 [Example 139] | 8.00 to 9.00 | > 6.30 | −13 | 7.30 to 8.00 | 
